From patent US20100129800A1, “POLYMERS AND THEIR USE AS FLUORESCENT LABELS” (priority 2007, published 2010)

Test: Fluorescence properties of the new compounds (excitation and emission wavelengths)
Format: physicochemical
Conditions: free compound

Fluorescence Excitation (nm)	Fluorescence emission (nm)	Structure (SMILES)
275 nm	440 nm	CC(=O)NC1CC(C(=O)NC2CC(C(=O)NC3CC(C(N)=O)N(C(=O)CNC(=O)c4c5ccccc5nc5ccccc45)C3)N(C(=O)CNC(=O)c3c4ccccc4nc4ccccc34)C2)N(C(=O)CNC(=O)c2c3ccccc3nc3ccccc23)C1 (centres unmarked) [Example 56, N^4-Acetyl-4-amino-{2-(acridine-9-carboxamide)acetyl}prolinyl-4-amino-{2-(acridine-9-carboxamide)acetyl}prolinyl-4-amino-{2-(acridine-9-carboxamide)acetyl}prolinamide]
348 nm	505 nm	CC(=O)NC1CC(C(=O)NC2CC(C(=O)NC3CC(C(N)=O)N(C(=O)CNC(=O)c4c5ccccc5nc5c4[nH]c4ccccc45)C3)N(C(=O)CNC(=O)c3c4ccccc4nc4c3[nH]c3ccccc34)C2)N(C(=O)CNC(=O)c2c3ccccc3nc3c2[nH]c2ccccc23)C1 (centres unmarked) [Example 57, N^4-Acetyl-4-amino-{2-(10H-indolo[3,2-b]quinoline-11-carboxamide)acetyl}prolinyl-4-amino-{2-(10H-indolo[3,2-b]quinoline-11-carboxamide)acetyl}prolinyl-{2-(10H-indolo[3,2-b]quinoline-11-carboxamide)acetyl}prolinamide]
275 nm	503 nm	CC(=O)NC1CC(C(=O)NC2CC(C(=O)NC3CC(C(N)=O)N(C(=O)CNC(=O)c4c5ccccc5nc5ccccc45)C3)N(C(=O)CNC(=O)c3c4ccccc4nc4c3[nH]c3ccccc34)C2)N(C(=O)CNC(=O)c2c3ccccc3nc3ccccc23)C1 (centres unmarked) [Example 58, N^4-Acetyl-4-amino-{2-(acridine-9-carboxamide)acetyl}prolinyl-4-amino-{2-(10H-indolo[3,2-b]quinoline-11-carboxamide)acetyl}proliny-4-amino-{2-(acridine-9-carboxamide)acetyl}prolinamide]
309 nm	456 nm	CC(=O)N[C@H]1C[C@@H](C(=O)N[C@H]2C[C@@H](C(=O)N[C@H]3C[C@@H](C(N)=O)N(C(=O)CNC(=O)c4c5ccccc5nc5ccccc45)C3)N(C(=O)CNC(=O)c3c4ccccc4nc4ccccc34)C2)N(C(=O)CNC(=O)c2c3ccccc3nc3c2[nH]c2ccccc23)C1 [Example 60, N^4-Acetyl-4-amino-{2-(10H-indolo[3,2-b]quinoline-11-carboxamide)acetyl}prolinyl-4-amino-{2-(acridine-9-carboxamide)acetyl}prolinyl-4-amino-{2-(acridine-9-carboxamide)acetyl}prolinamide]
348 nm	488 nm	CC(=O)NC1CC(C(=O)NC2CC(C(=O)NC3CC(C(N)=O)N(C(=O)CNC(=O)c4c5ccccc5nc5c4[nH]c4ccccc45)C3)N(C(=O)CNC(=O)c3c4ccccc4nc4ccccc34)C2)N(C(=O)CNC(=O)c2c3ccccc3nc3c2[nH]c2ccccc23)C1 (centres unmarked) [Example 61, N^4-Acetyl-4-amino-{2-(10H-indolo[3,2-b]quinoline-11-carboxamide)acetyl}prolinyl-4-amino-{2-(acridine-9-carboxamide)acetyl}prolinyl-4-amino-{2-(10H-indolo[3,2-b]quinoline-11-carboxamide)acetyl}prolinamide]
272 nm	503 nm	CC(=O)N1CC(NC(=O)CNC(=O)c2c3ccccc3nc3ccccc23)C[C@H]1C(=O)N1CC(NC(=O)CNC(=O)c2c3ccccc3nc3c2[nH]c2ccccc23)C[C@H]1C(=O)N1CC(NC(=O)CNC(=O)c2c3ccccc3nc3c2[nH]c2ccccc23)C[C@H]1C(N)=O (some centres unmarked) [Example 63, N^4-Acetyl-4-amino-{2-(acridine-9-carboxamide)acetyl}prolinyl-4-amino-{2-(10H-indolo[3,2-b]quinoline-11-carboxamide)acetyl}proliny-4-amino-{2-(10H-indolo[3,2-b]quinoline-11-carboxamide)acetyl}prolinamide]

Second part, the compound before the results:

Structure (SMILES)	Fluorescence Excitation (nm)	Fluorescence emission (nm)
CC(=O)NC1CC(C(=O)NC2CC(C(N)=O)N(C(=O)CNC(=O)c3c4ccccc4nc4c3[nH]c3ccccc34)C2)N(C(=O)CNC(=O)c2c3ccccc3nc3ccccc23)C1 (centres unmarked) [Example 55, 10H-Indolo[3,2-b]quinoline-11-carboxylic acid (2-{4-[4(4-acetylamino-1-{2-[(acridine-9-carbonyl)-amino]-acetyl}-pyrrolidine-2-carbonyl)-amino]-2-carbamoyl-pyrrolidin-1-yl}-2-oxo-ethyl)-amide]	308 nm	500 nm
CC(=O)NC1CC(C(=O)NC2CC(C(=O)NC3CC(C(=O)NC4CC(C(=O)NC5CC(C(N)=O)N(C(=O)CNC(=O)c6cc(-c7ccccc7)nc7ccccc67)C5)N(C(C)=O)C4)N(C(=O)CNC(=O)c4c5ccccc5nc5ccccc45)C3)N(C(C)=O)C2)N(C(=O)CNC(=O)c2c3ccccc3nc3c2[nH]c2ccccc23)C1 (centres unmarked) [Example 64]	347 nm	488 nm
CC(=O)NC1CC(C(=O)NC2CC(C(=O)NC3CC(C(=O)NC4CC(C(=O)NC5CC(C(N)=O)N(C(=O)CNC(=O)c6c7ccccc7nc7c6[nH]c6ccccc67)C5)N(C(C)=O)C4)N(C(=O)CNC(=O)c4cc(-c5ccccc5)nc5ccccc45)C3)N(C(C)=O)C2)N(C(=O)CNC(=O)c2c3ccccc3nc3ccccc23)C1 (centres unmarked) [Example 65, N^4-Acetyl-4-amino-{2-(acridine-9-carboxamide)acetyl}prolinyl-4-aminoprolinyl-4-amino-[(2-phenyl-quinoline-4-carboxamide)acetyl]prolinamide-4-aminoprolinyl-4-amino-{2-(10H-indolo[3,2-b]quinoline-11-carboxamide)acetyl}prolinamide]	249 nm	442 nm
CC(=O)NC1CC(C(=O)NC2CC(C(=O)NC3CC(C(=O)NC4CC(C(=O)NC5CC(C(=O)NC6CC(C(=O)NC7CC(C(N)=O)N(C(=O)CNC(=O)c8cc(-c9ccccc9)nc9ccccc89)C7)N(C(C)=O)C6)N(C(C)=O)C5)N(C(=O)CNC(=O)c5c6ccccc6nc6ccccc56)C4)N(C(C)=O)C3)N(C(C)=O)C2)N(C(=O)CNC(=O)c2c3ccccc3nc3c2[nH]c2ccccc23)C1 (centres unmarked) [Example 66, N^4-Acetyl-4-amino-{2-(10H-indolo[3,2-b]quinoline-11-carboxamide)acetyl}prolinyl-4-aminoprolinyl-4-aminoprolinyl-4-amino-{2-(acridine-9-carboxamide)acetyl}prolinyl-4-aminoprolinyl-4-aminoprolinyl-4-amino-[(2-phenyl-quinoline-4-carboxamide)acetyl]prolinamide]	269 nm	432 nm
CC(=O)NC1CC(C(=O)NC2CC(C(=O)NC3CC(C(=O)NC4CC(C(=O)NC5CC(C(=O)NC6CC(C(=O)NC7CC(C(N)=O)N(C(=O)CNC(=O)c8c9ccccc9nc9c8[nH]c8ccccc89)C7)N(C(C)=O)C6)N(C(C)=O)C5)N(C(=O)CNC(=O)c5cc(-c6ccccc6)nc6ccccc56)C4)N(C(C)=O)C3)N(C(C)=O)C2)N(C(=O)CNC(=O)c2c3ccccc3nc3ccccc23)C1 (centres unmarked) [Example 67]	265 nm	451 nm
CC(=O)N[C@@H](CCCNC(=O)CNC(=O)c1c2ccccc2nc2ccccc12)C(=O)N[C@@H](CCCNC(=O)CNC(=O)c1c2ccccc2nc2ccccc12)C(=O)N[C@@H](CCCNC(=O)CNC(=O)c1c2ccccc2nc2ccccc12)C(N)=O [Example 68, N^4-Acetyl-5-N-{2-(acridine-9-carboxamide)acetyl}ornithinyl-5-N-{2-(acridine-9-carboxamide)acetyl}ornithinyl-5-N-{2-(acridine-9-carboxamide)acetyl}ornithinamide]	360 nm	435 nm
CC(=O)N[C@@H](CCCNC(=O)CNC(=O)c1c2ccccc2nc2ccccc12)C(=O)N[C@@H](CCCNC(=O)CNC(=O)c1c2ccccc2nc2c1[nH]c1ccccc12)C(=O)N[C@@H](CCCNC(=O)CNC(=O)c1c2ccccc2nc2ccccc12)C(N)=O [Example 69, N^4-Acetyl-5-N-{2-(acridine-9-carboxamide)acetyl}ornithinyl-5-N-{2-(10H-indolo[3,2-b]quinoline-11-carboxamide)acetyl}ornithinyl-5-N-{2-(acridine-9-carboxamide)acetyl}ornithinamide]	357 nm	441 nm
CC(=O)N[C@@H](CCCNC(=O)CNC(=O)c1c2ccccc2nc2ccccc12)C(=O)N[C@@H](CCCNC(=O)CNC(=O)c1c2ccccc2nc2c1[nH]c1ccccc12)C(=O)N[C@@H](CCCNC(=O)CNC(=O)c1c2ccccc2nc2c1[nH]c1ccccc12)C(N)=O [Example 70, N^4-Acetyl-5-N-{2-(acridine-9-carboxamide)acetyl}ornithinyl-5-N-{2-(10H-indolo[3,2-b]quinoline-11-carboxamide)acetyl}ornithinyl-5-N-{2-(10H-indolo[3,2-b]quinoline-11-carboxamide)acetyl}ornithinamide]	248 nm	
CC(=O)N[C@@H](CCCNC(=O)CNC(=O)c1c2ccccc2nc2c1[nH]c1ccccc12)C(=O)N[C@@H](CCCNC(=O)CNC(=O)c1c2ccccc2nc2c1[nH]c1ccccc12)C(=O)N[C@@H](CCCNC(=O)CNC(=O)c1c2ccccc2nc2c1[nH]c1ccccc12)C(N)=O [Example 71, N^4-Acetyl-5-N-{2-(10H-indolo[3,2-b]quinoline-11-carboxamide)acetyl}ornithinyl-5-N-{2-(10H-indolo[3,2-b]quinoline-11-carboxamide)acetyl}ornithinyl-5-N-{2-(10H-indolo[3,2-b]quinoline-11-carboxamide)acetyl}ornithinamide]	338 nm	466 nm
